# Tested on: compound-treated mice
# Assay: Neuropharmacological assay (SmartCube): behavioral activity signature and minimal effective dose
# Format: in vivo
# Details: MED = dose having 50% or more total activity
# Procedure, shortened: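 Video-recorded behavior is compared algorithmically against a reference-compound database, yielding class probabilities (best dose reported). Compounds given i.p. in NMP/PEG/propylene glycol 15 min pre-test at 3 doses; potency as MED, the dose (mpk, range usually 0.3–30) reaching ≥50% total activity.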
SMILES,Potency: minimal effective dose (MED),"Potency: minimal effective dose (MED), binned"
CN[C@@H]1COCc2cccc(Cl)c21 [Example 145],C (>10 to ≤30 mpk),
C[C@@H]1OCc2ccc(F)cc2[C@H]1N [Example 184],,A (≤3 mpk)

# Same assay, conditions: Mus musculus, ip, MED = dose having 50% or more total activity, read-out: Potency: minimal effective dose (MED)
row,SMILES,minimal effective dose [mg/kg]
1,CN[C@H]1COCc2ccc(C)c(C)c21 [Example 144],3 to 10
2,CN[C@H]1COCc2cccc(Cl)c21 [Example 146],3 to 10
3,CN[C@@H]1COCc2ccc(Cl)c(Cl)c21 [Example 147],3 to 10
4,CN[C@H]1COCc2ccc(Cl)c(Cl)c21 [Example 148],3 to 10
5,CN[C@@H]1COCc2c(Cl)cccc21 [Example 149],< 3
6,Cc1ccc2c(c1)[C@H](N)[C@@H](C)OC2 [Example 155],3 to 10
7,Cc1ccc2c(c1)[C@@H](N)[C@H](C)OC2 [Example 156],3 to 10

# Same assay, conditions: Mus musculus, ip, MED = dose having 50% or more total activity, read-out: Potency: minimal effective dose (MED), binned
row,SMILES,minimal effective dose [mg/kg]
1,C[C@H]1OCc2cccc(Cl)c2[C@@H]1N [Example 159],3 to 10
2,CC[C@H]1OCc2ccc(F)cc2[C@@H]1N [Example 181],< 3
3,CC[C@@H]1OCc2ccc(F)cc2[C@H]1N [Example 182],< 3
4,C[C@H]1OCc2ccc(F)cc2[C@@H]1N [Example 183],< 3
5,C[C@@H]1OCc2ccc(F)cc2[C@@H]1N [Example 185],< 3
6,C[C@H]1OCc2ccc(F)cc2[C@H]1N [Example 186],3 to 10

# Same assay, conditions: i.p. 15 min before test, most efficacious dose(s)
SMILES,AD: ADHD (probability of activity signature),AG: analgesic (probability of activity signature),AX: anxiolytic (probability of activity signature),CE: cognitive enhancer (probability of activity signature),DP: anti-depressant (probability of activity signature),MS: mood stabilizer (probability of activity signature),PS: anti-psychotic (probability of activity signature),SD: sedative hypnotic (probability of activity signature),UN: uncharacterized CNS activity (probability of activity signature)
CN[C@H]1COCc2ccc(C)c(C)c21 [Example 144],+ (LOQ ≤ + <5%),++ (5% ≤ ++ <25%),++ (5% ≤ ++ <25%),++ (5% ≤ ++ <25%),++ (5% ≤ ++ <25%),+ (LOQ ≤ + <5%),++ (5% ≤ ++ <25%),++ (5% ≤ ++ <25%),+++ (25% ≤ +++ <50%)
CN[C@@H]1COCc2cccc(Cl)c21 [Example 145],+ (LOQ ≤ + <5%),++ (5% ≤ ++ <25%),++ (5% ≤ ++ <25%),++ (5% ≤ ++ <25%),+ (LOQ ≤ + <5%),+ (LOQ ≤ + <5%),+ (LOQ ≤ + <5%),+ (LOQ ≤ + <5%),+++ (25% ≤ +++ <50%)
CN[C@H]1COCc2cccc(Cl)c21 [Example 146],+ (LOQ ≤ + <5%),++ (5% ≤ ++ <25%),+++ (25% ≤ +++ <50%),++ (5% ≤ ++ <25%),+ (LOQ ≤ + <5%),+ (LOQ ≤ + <5%),+ (LOQ ≤ + <5%),+ (LOQ ≤ + <5%),++ (5% ≤ ++ <25%)
CN[C@@H]1COCc2ccc(Cl)c(Cl)c21 [Example 147],+ (LOQ ≤ + <5%),++ (5% ≤ ++ <25%),++ (5% ≤ ++ <25%),+ (LOQ ≤ + <5%),++ (5% ≤ ++ <25%),+ (LOQ ≤ + <5%),+ (LOQ ≤ + <5%),+ (LOQ ≤ + <5%),++++ (50% ≤ ++++)
CN[C@H]1COCc2ccc(Cl)c(Cl)c21 [Example 148],+ (LOQ ≤ + <5%),++ (5% ≤ ++ <25%),++ (5% ≤ ++ <25%),++ (5% ≤ ++ <25%),++ (5% ≤ ++ <25%),++ (5% ≤ ++ <25%),++ (5% ≤ ++ <25%),++ (5% ≤ ++ <25%),+++ (25% ≤ +++ <50%)
CN[C@@H]1COCc2c(Cl)cccc21 [Example 149],+ (LOQ ≤ + <5%),++ (5% ≤ ++ <25%),++ (5% ≤ ++ <25%),++ (5% ≤ ++ <25%),++ (5% ≤ ++ <25%),+ (LOQ ≤ + <5%),+++ (25% ≤ +++ <50%),++ (5% ≤ ++ <25%),+++ (25% ≤ +++ <50%)
Cc1ccc2c(c1)[C@H](N)[C@@H](C)OC2 [Example 155],+ (LOQ ≤ + <5%),++ (5% ≤ ++ <25%),++++ (50% ≤ ++++),++ (5% ≤ ++ <25%),++ (5% ≤ ++ <25%),+ (LOQ ≤ + <5%),++ (5% ≤ ++ <25%),++ (5% ≤ ++ <25%),++ (5% ≤ ++ <25%)
Cc1ccc2c(c1)[C@@H](N)[C@H](C)OC2 [Example 156],+ (LOQ ≤ + <5%),++ (5% ≤ ++ <25%),++ (5% ≤ ++ <25%),++ (5% ≤ ++ <25%),+ (LOQ ≤ + <5%),+ (LOQ ≤ + <5%),+ (LOQ ≤ + <5%),+ (LOQ ≤ + <5%),+++ (25% ≤ +++ <50%)
C[C@H]1OCc2cccc(Cl)c2[C@@H]1N [Example 159],+ (LOQ ≤ + <5%),+ (LOQ ≤ + <5%),+++ (25% ≤ +++ <50%),+ (LOQ ≤ + <5%),+++ (25% ≤ +++ <50%),+ (LOQ ≤ + <5%),+ (LOQ ≤ + <5%),+ (LOQ ≤ + <5%),++ (5% ≤ ++ <25%)
CC[C@H]1OCc2ccc(F)cc2[C@@H]1N [Example 181],+ (LOQ ≤ + <5%),++ (5% ≤ ++ <25%),++ (5% ≤ ++ <25%),++ (5% ≤ ++ <25%),+ (LOQ ≤ + <5%),+ (LOQ ≤ + <5%),++ (5% ≤ ++ <25%),+++ (25% ≤ +++ <50%),++++ (50% ≤ ++++)
CC[C@@H]1OCc2ccc(F)cc2[C@H]1N [Example 182],+ (LOQ ≤ + <5%),+ (LOQ ≤ + <5%),++ (5% ≤ ++ <25%),++ (5% ≤ ++ <25%),++ (5% ≤ ++ <25%),+ (LOQ ≤ + <5%),+++ (25% ≤ +++ <50%),+ (LOQ ≤ + <5%),++++ (50% ≤ ++++)
C[C@H]1OCc2ccc(F)cc2[C@@H]1N [Example 183],+ (LOQ ≤ + <5%),++ (5% ≤ ++ <25%),++ (5% ≤ ++ <25%),++ (5% ≤ ++ <25%),++ (5% ≤ ++ <25%),+ (LOQ ≤ + <5%),++ (5% ≤ ++ <25%),++ (5% ≤ ++ <25%),++++ (50% ≤ ++++)
C[C@@H]1OCc2ccc(F)cc2[C@H]1N [Example 184],+ (LOQ ≤ + <5%),+ (LOQ ≤ + <5%),++ (5% ≤ ++ <25%),++ (5% ≤ ++ <25%),++ (5% ≤ ++ <25%),+ (LOQ ≤ + <5%),++ (5% ≤ ++ <25%),+ (LOQ ≤ + <5%),++++ (50% ≤ ++++)
C[C@@H]1OCc2ccc(F)cc2[C@@H]1N [Example 185],+ (LOQ ≤ + <5%),++ (5% ≤ ++ <25%),+++ (25% ≤ +++ <50%),++ (5% ≤ ++ <25%),+ (LOQ ≤ + <5%),+ (LOQ ≤ + <5%),++ (5% ≤ ++ <25%),+ (LOQ ≤ + <5%),++++ (50% ≤ ++++)
C[C@H]1OCc2ccc(F)cc2[C@H]1N [Example 186],+ (LOQ ≤ + <5%),++ (5% ≤ ++ <25%),++ (5% ≤ ++ <25%),++ (5% ≤ ++ <25%),++ (5% ≤ ++ <25%),+ (LOQ ≤ + <5%),++ (5% ≤ ++ <25%),+ (LOQ ≤ + <5%),+++ (25% ≤ +++ <50%)

# — patent US11077090B2, “Compounds and compositions and uses thereof” (Sunovion Pharmaceuticals Inc., priority 2016, dated 2021)
